Test results reported in patent publication US20080267882A1, “Imaging compounds, methods of making imaging compounds, methods of imaging, therapeutic compounds, methods of making therapeutic compounds, and methods of therapy” (Stanford University, priority 2007, published 2008).

What was measured:
U87MG tumor-bearing mice = assay: in vivo; settings: mouse; for U87MG tumor uptake: iv, 3.7 MBq
Description: (§1) PET scans and image analysis were performed using a microPET R4 rodent model scanner (Siemens Medical Solutions) as previously reported (J Nucl Med 2006;47:113-121 and J Nucl Med 2005;46:1707-1718, each of which is incorporated herein by reference for the corresponding discussion). Each mouse was tail-vein injected with about 3.7 MBq (100 μCi) of ^18F-FPRGD2 under isoflurane anesthesia. The 30-min dynamic scan (1×30 s, 4×1 min, 1×1.5 min, 4×2 min, 1×2.5 min, 4×3 min, total of 15 frames) was started 1 min after injection. Five min static PET images were also acquired at 1 h and 2 h post-injection (p.i.). The images were reconstructed by a 2-dimensional ordered-subsets expectation maximum (OSEM) algorithm and no correction was applied for attenuation or scatter.
(§2) PET scans and image analysis were performed using a microPET R4 rodent model scanner (Siemens Medical Solutions) as previously reported. For U87MG tumor model, mice (n=3) were tail-vein injected with about 3.7 MBq (100 μCi) of ^18F-FPRGD4 under isoflurane anesthesia and then subjected to a 30-min dynamic scan (1×30 s, 4×1 min, 1×1.5 min, 4×2 min, 1×2.5 min, 4×3 min, total of 15 frames) starting from 1 min p.i. Five min static PET images were also acquired at 1, 2, and 3 h p.i. The images were reconstructed by 2-dimensional ordered-subsets expectation maximum (OSEM) algorithm. No attenuation or scatter correction was applied. […] The 5-min static PET scans was then acquired at 30 min and 1 h p.i. Multiple time point static scans were also obtained for orthotopic MDA-MB-435, c-neu oncomouse, and subcutaneous DU145 tumor models after tail-vein injected with 3.7 MBq of ^18F-FPRGD4.
(§3) For each microPET scan, regions of interest (ROIs) were drawn over the tumor, normal tissue, and major organs by using vendor software (ASI Pro 5.2.4.0) on decay-corrected whole-body coronal images. The maximum radioactivity concentration (accumulation) within a tumor or an organ was obtained from mean pixel values within the multiple ROI volume, which were converted to counts/mL/min by using a conversion factor. Assuming a tissue density of 1 g/mL, the ROIs were converted to counts/g/min and then divided by the administered activity to obtain an imaging ROI-derived % ID/g. […]
(§4) PET scans and image analysis were performed using a microPET R4 rodent model scanner (Siemens Medical Solutions) as previously reported (J Nucl Med. 2005;46:1707-1718 and J Nucl Med. 2006;47:113-121, each of which is incorporated herein by reference for the corresponding discussion). About 9.3 MBq of ^64Cu-DOTA-RGD multimer was intravenously injected into each mouse under isoflurane anesthesia. Five minute static scans were acquired at 30 min, 1 h, 2 h, 6 h, and 20 h p.i. The images were reconstructed by a 2-dimensional ordered-subsets expectation maximum (OSEM) algorithm and no correction was applied for attenuation and scatter. For each microPET scan, regions of interest (ROIs) were drawn over the tumor, normal tissue, and major organs on decay-corrected whole-body coronal images. The radioactivity concentration (accumulation) within a tumor was obtained from the maximum value within the multiple ROIs and then converted to % ID/g.
(§5) PET scans and image analysis were performed using a microPET R4 rodent model scanner (Siemens Medical Solutions) as previously reported (J Nucl Med. 2006;47:113-21 and J Nucl Med. 2005;46:1707-18, which is incorporated herein by reference for the corresponding discussion). […] The 60-min dynamic scan (5×1 min, 10×3 min, 5×5 min, total of 20 frames) was started 1 min after injection. A 2 h time point static scan was also acquired after the 60 min dynamic scan. Five min static PET images were also acquired separately at 30 min, 1 h and 2 h time points post-injection (p.i.) for another set of tumor-bearing mice (n=3/tracer). The images were reconstructed by a 2-dimensional ordered-subsets expectation maximum (OSEM) algorithm and no correction was necessary for attenuation or scatter correction. […]

in vivo [1] = settings: mouse, iv, total radioactivity
Description: as §1, §2, §3, §4, §5

in vivo [2] = settings: female, nude, mouse, total radioactivity
Description: All mice were sacrificed and dissected at 1 h after injection of the tracer. Blood, tumor, major organs and tissues were collected and wet weighed. The radioactivity in the tissue was measured using a γ-counter (Packard). The results were presented as percentage injected dose per gram of tissue (% ID/g).

[3] = mouse, in vivo
Description: A U87MG tumor mouse was intravenously injected with 3.7 MBq of ^18F-FPRGD2. At 1 h after injection, the mouse was sacrificed, the blood, urine, liver, kidneys, and the U87MG tumor were collected and metabolite analysis was carried out as previously reported (J Nucl Med 2006;47: 113-121 and J Nucl Med 2006;47:1172-1180, each of which is incorporated herein by reference for the corresponding discussion). In brief, blood sample was immediately centrifuged for 5 min at 13,200 rpm. Other tissues were homogenized and then centrifuged for 5 min at 13,200 rpm. The supernatant was each passed through a C18 Sep-Pak cartridge. The urine sample was directly diluted with 1 mL of PBS and passed through a C18 Sep-Pak cartridge. The cartridges were each washed with 2 mL of water and eluted with 2 mL of ACN containing 0.1% TFA. The ACN eluent was concentrated and injected onto the analytical HPLC. The eluent was collected with a fraction collector (0.5 min/fraction) and the radioactivity of each fraction was measured with the γ-counter.
The metabolic stability of ^18F-FPTA-RGD2 was evaluated in an athymic nude mouse bearing a U87MG tumor. Sixty min after intravenous injection of 2 MBq of ^18F-FPTA-RGD2, the mouse was sacrificed and relevant organs were harvested. The blood was collected and immediately centrifuged for 5 min at 13,200 rpm. Liver, kidneys and tumor were homogenized and then centrifuged for 5 min at 13,200 rpm. After removal of the supernatants, the pellets were washed with 1 mL PBS. For each sample, supernatants of both centrifugation steps of blood, liver, and kidneys were combined and passed through C18 Sep-Pak cartridges. The urine sample was directly diluted with 1 mL of PBS and passed through a C18 Sep-Pak cartridge. The cartridges were each washed with 2 mL of water and eluted with 2 mL of ACN containing 0.1% TFA. After evaporation of the solvent, the residues were redissolved in 1 mL PBS and were injected onto the analytical HPLC. The eluent was collected with a fraction collector (0.5 min/fraction) and the radioactivity of each fraction was measured with the γ-counter.

[4] = athymic nude, 3.7 MBq, U87MG tumor uptake
[5] = nude, 3.7 MBq, U87MG tumor uptake

Compound	tissue uptake at 0.5 h (in vivo [1]; [4]) [%ID/g]	tissue uptake at 1 h (in vivo [1]; [4]) [%ID/g]	tissue uptake at 2 h (in vivo [1]; [4]) [%ID/g]	tissue uptake at 0.25 h (in vivo [1]; [5]) [%ID/g]	tissue uptake at 0.5 h (in vivo [1]; [5]) [%ID/g]	tissue uptake at 1 h (in vivo [1]; [5]) [%ID/g]	tissue uptake at 2 h (in vivo [1]; [5]) [%ID/g]	also measured
N=C(N)NCCC[C@@H]1NC(=O)[C@H](CCCCNC(=S)Nc2ccc(C[C@H]3CN(CC(=O)O)CCN(CC(=O)O)CCN3CC(=O)O)cc2)NC(=O)[C@@H](Cc2ccc(O)cc2)NC(=O)[C@H](CC(=O)O)NC(=O)CNC1=O [^68Ga-NOTA-RGD1, metal not drawn]	1.9 ± 0.2	1.4 ± 0.2	1.1 ± 0.1	2.35	1.84	1.47	1.12	U87MG tumor uptake (U87MG tumor-bearing mice; 5 min): 3.24 % ID/g
N=C(N)NCCC[C@@H]1NC(=O)[C@H](CCCCNC(=O)CC[C@H](NC(=S)Nc2ccc(C[C@H]3CN(CC(=O)O)CCN(CC(=O)O)CCN3CC(=O)O)cc2)C(=O)NCCCC[C@@H]2NC(=O)[C@@H](Cc3ccc(O)cc3)NC(=O)[C@H](CC(=O)O)NC(=O)CNC(=O)[C@H](CCCNC(=N)N)NC2=O)NC(=O)[C@@H](Cc2ccc(O)cc2)NC(=O)[C@H](CC(=O)O)NC(=O)CNC1=O [^68Ga-NOTA-RGD2, metal not drawn]	2.6 ± 0.2	2.8 ± 0.11	1.7 ± 0.1	3.46	2.79	2.34	1.89	tissue uptake at 1 h (in vivo [2]; 10 mg/kg, tumor uptake with blocking): 0.21 ± 0.03 %ID/g; tissue uptake at 1 h (in vivo [2]; 3.7 MBq, kidney uptake): 4.3 ± 0.25 %ID/g; tissue uptake at 1 h (in vivo [2]; 3.7 MBq, tumor uptake): 3.82 ± 0.7 %ID/g; tissue uptake at 1 h (in vivo [2]; 3.7 MBq, uptake values in the other major organs): ≤ 1 %ID/g; U87MG tumor uptake (U87MG tumor-bearing mice; athymic nude, 1 h): 2.2±0.1 % ID/g; tissue uptake at 1 h (in vivo [1]; athymic nude, 3.7 MBq, kidney uptake): 2 %ID/g; tissue uptake at 1 h (in vivo [1]; female, athymic nude, 10 mg/kg, U87MG tumor uptake with blocking): 0.31 ± 0.02 %ID/g; tissue uptake at 5 min (in vivo [1]; [5]): 4.39 %ID/g; tissue uptake at 1 h (in vivo [1]; nude, 3.7 MBq, kidney uptake): 4.6 %ID/g
^18F-FB-E[c(RGDyK)]2 [^18F-FRGD2, reference compound]	–	–	–	–	–	–	–	residence time for kidneys (U87MG tumor-bearing mice): 0.029 h
^18F-fluoro-PEG-triazole-E(RGDyK)2 [^18F-FPTA-RGD2]	–	–	–	–	–	–	–	extraction efficiency (radioactivity in the supernatant) [3]: 86-99%; non-retained fraction (activity not trapped on C18 cartridges) [3]: 1-41%
